Data reported in patent US11999716B2, “WDR5 inhibitors and modulators” (priority 2018, dated 2024).

system: MV4:11 human cancer cell lines; assay: Cellular viability / anti-proliferative activity, CellTiter-Glo, 5 day protocol; assay type: cell-based; conditions: Homo sapiens, MV4-11, 120 h, MV4:11 cells; 5 day incubation; CellTiter-Glo; mean of minimum two replicates; read-out: GI50 on cellular proliferation of MV4:11 human cancer cell lines
Protocol: Cellular Viability of Human Tumor Cell Lines
Anti proliferative activity using MLL-harboring cell lines. […] Viability assays are performed by dispensing 200 cells at 7200 cells/mL into each well of an opaque 384-well plate and adding compounds at the indicated concentrations in a final volume of 32 μL and a final concentration of DMSO of 0.3% for all samples. A certain range of compound concentrations is made through a series of 2-fold dilutions starting 30 μM at the highest, total 22 dilutions. After a set incubation period, 5 day protocol, the viability of cells in each well is assessed using the CellTiter-Glo assay (Promega), read on a 96 Microplane Luminometer (Cytation 3, BioTek). Serial dilutions of each cell type are performed in all assays to generate standard curves and the final densities of cells are determined within the dynamic range of the instrument. GI50 values are calculated based on XLfit software (IDBS, Guildford, UK) with Sigmoidal Dose-Response Model. Each compound is tested in minimum of two replicates. Data are expressed as mean.

Structure (SMILES)	GI50 [µM]
CCn1cc(-c2cc(Cn3ccoc3=N)cc3c2CCN(Cc2cc(C)nn2C)C3=O)c(C(F)(F)F)n1 [Example 94, 2-((1,3-Dimethyl-1H-pyrazol-5-yl)methyl)-5-(1-ethyl-3-(trifluoromethyl)-1H-pyrazol-4-yl)-7-((2-iminooxazol-3(2H)-yl)methyl)-3,4-dihydroisoquinolin-1(2H)-one]	0.159
Cc1cncc(CN2CCc3c(cc(Cn4ccnc4C)cc3-c3cn(C)nc3C(F)(F)F)C2=O)c1 [Example 157, 7-((2-Methyl-1H-imidazol-1-yl)methyl)-5-(1-methyl-3-(trifluoromethyl)-1H-pyrazol-4-yl)-2-((5-methylpyridin-3-yl)methyl)-3,4-dihydroisoquinolin-1(2H)-one]	< 0.05
Cc1ccnc([C@H](C2CC2)N2CCc3c(cc(Cn4ccnc4)cc3-c3ccc(F)cc3C)C2=O)c1 [Example 184, (S)-7-((1H-Imidazol-1-yl)methyl)-2-(cyclopropyl(4-methylpyridin-2-yl)methyl)-5-(4-fluoro-2-methylphenyl)-3,4-dihydroisoquinolin-1(2H)-one]	0.125
COc1ccnc(CN2CCc3c(cc(Cn4ccn(C(F)F)c4=N)cc3-c3cn(C)nc3C(F)(F)F)C2=O)c1 [Example 61, 7-((3-(Difluoromethyl)-2-imino-2,3-dihydro-1H-imidazol-1-yl)methyl)-2-((4-methoxypyridin-2-yl)methyl)-5-(1-methyl-3-(trifluoromethyl)-1H-pyrazol-4-yl)-3,4-dihydroisoquinolin-1(2H)-one]	< 0.05
CCn1cc(-c2cc(Cn3cnn(C)c3=N)cc3c2CCN(Cc2cc(OC)ccn2)C3=O)c(C(F)(F)F)n1 [Example 123, 5-(1-Ethyl-3-(trifluoromethyl)-1H-pyrazol-4-yl)-7-((5-imino-1-methyl-1,5-dihydro-4H-1,2,4-triazol-4-yl)methyl)-2-((4-methoxypyridin-2-yl)methyl)-3,4-dihydroisoquinolin-1(2H)-one]	< 0.05
COc1ccnc([C@H](C)N2CCc3c(cc(Cn4ccnc4C)cc3-c3ccncc3C)C2=O)c1 [Example 224, (S)-2-(1-(4-Methoxypyridin-2-yl)ethyl)-7-((2-methyl-1H-imidazol-1-yl)methyl)-5-(3-methylpyridin-4-yl)-3,4-dihydroisoquinolin-1(2H)-one]	0.072
CCn1cc(-c2cc(Cn3ccsc3=N)cc3c2CCN(Cc2cc(OC)ccn2)C3=O)cn1 [Example 102, 5-(1-ethyl-1H-pyrazol-4-yl)-7-((2-iminothiazol-3(2H)-yl)methyl)-2-((4-methoxypyridin-2-yl)methyl)-3,4-dihydroisoquinolin-1(2H)-one]	> 0.938
COc1cc(CN2CCc3c(cc(Cn4ccn(C)c4=N)cc3-c3cccnc3C(F)(F)F)C2=O)cc(OC)c1 [Example 35, 2-(3,5-Dimethoxybenzyl)-7-((2-imino-3-methyl-2,3-dihydro-1H-imidazol-1-yl)methyl)-5-(2-(trifluoromethyl)pyridin-3-yl)-3,4-dihydroisoquinolin-1(2H)-one]	0.143
Cc1cc(CN2CCc3c(cc(Cn4ccnc4C)cc3-c3cn(C)nc3C(F)(F)F)C2=O)ccn1 [Example 208, 7-((2-Methyl-1H-imidazol-1-yl)methyl)-5-(1-methyl-3-(trifluoromethyl)-1H-pyrazol-4-yl)-2-((2-methylpyridin-4-yl)methyl)-3,4-dihydroisoquinolin-1(2H)-one]	0.251
COc1cc(CN2CCCc3c(cc(Cn4ccn(C)c4=N)cc3-c3ccc(F)cc3C)C2=O)cc(OC)c1 [Example 140, 2-(3,5-Dimethoxybenzyl)-6-(4-fluoro-2-methylphenyl)-8-((2-imino-3-methyl-2,3-dihydro-1H-imidazol-1-yl)methyl)-2,3,4,5-tetrahydro-1H-benzo[c]azepin-1-one]	0.2
COc1cc(CN2CCc3c(cc(Cn4cnn(C)c4=N)cc3-c3ccc(C)nc3C)C2=O)cc(OC)c1 [Example 127, 2-(3,5-Dimethoxybenzyl)-5-(2,6-dimethylpyridin-3-yl)-7-((5-imino-1-methyl-1,5-dihydro-4H-1,2,4-triazol-4-yl)methyl)-3,4-dihydroisoquinolin-1(2H)-one]	0.345
Cc1cc([C@H](C)N2CCc3c(cc(Cn4ccnc4C)cc3-c3cn(C)nc3C(F)(F)F)C2=O)ncc1F [Example 163, (S)-2-(1-(5-fluoro-4-methylpyridin-2-yl)ethyl)-7-((2-methyl-1H-imidazol-1-yl)methyl)-5-(1-methyl-3-(trifluoromethyl)-1H-pyrazol-4-yl)-3,4-dihydroisoquinolin-1(2H)-one]	< 0.05
O=C1c2cc(Cn3ccnc3)ccc2CCN1Cc1cc(Cl)cc(Cl)c1 [Example 1, 7-((1H-Imidazol-1-yl)methyl)-2-(3,5-dichlorobenzyl)-3,4-dihydroisoquinolin-1(2H)-one]	0.239
Cc1cnnc(CN2CCc3c(cc(Cn4ccnc4C)cc3-c3cn(C)nc3C(F)(F)F)C2=O)c1 [Example 232, 7-((2-Methyl-1H-imidazol-1-yl)methyl)-5-(1-methyl-3-(trifluoromethyl)-1H-pyrazol-4-yl)-2-((5-methylpyridazin-3-yl)methyl)-3,4-dihydroisoquinolin-1(2H)-one]	0.199
CCn1cc(-c2cc(CN3CCOC3=N)cc3c2CCN(Cc2cc(C)nn2C)C3=O)c(C(F)(F)F)n1 [Example 95, 2-((1,3-Dimethyl-1H-pyrazol-5-yl)methyl)-5-(1-ethyl-3-(trifluoromethyl)-1H-pyrazol-4-yl)-7-((2-iminooxazolidin-3-yl)methyl)-3,4-dihydroisoquinolin-1(2H)-one]	0.197
Cc1cnc(Cl)c(CN2CCc3c(cc(Cn4ccnc4C)cc3-c3cn(C)nc3C(F)(F)F)C2=O)c1 [Example 223, 2-((2-Chloro-5-methylpyridin-3-yl)methyl)-7-((2-methyl-1H-imidazol-1-yl)methyl)-5-(1-methyl-3-(trifluoromethyl)-1H-pyrazol-4-yl)-3,4-dihydroisoquinolin-1(2H)-one]	< 0.05
COc1cc(CN2CCc3c(cc(Cn4ccoc4=N)cc3-c3ccc(F)cc3C)C2=O)cc(OC)c1 [Example 81, 2-(3,5-Dimethoxybenzyl)-5-(4-fluoro-2-methylphenyl)-7-((2-iminooxazol-3(2H)-yl)methyl)-3,4-dihydroisoquinolin-1(2H)-one]	0.155
COc1ccnc([C@H](C)N2CCc3c(cc(Cn4ccn(C)c4=N)cc3-c3cn(C)nc3C(F)(F)F)C2=O)c1 [Example 71, (S)-7-((2-Imino-3-methyl-2,3-dihydro-1H-imidazol-1-yl)methyl)-2-(1-(4-methoxypyridin-2-yl)ethyl)-5-(1-methyl-3-(trifluoromethyl)-1H-pyrazol-4-yl)-3,4-dihydroisoquinolin-1(2H)-one]	< 0.05
Cc1ccnc(CN2CCc3c(cc(Cn4ccn(C)c4=N)cc3-c3cn(C)nc3C(F)(F)F)C2=O)c1 [Example 53, 7-((2-Imino-3-methyl-2,3-dihydro-1H-imidazol-1-yl)methyl)-5-(1-methyl-3-(trifluoromethyl)-1H-pyrazol-4-yl)-2-((4-methylpyridin-2-yl)methyl)-3,4-dihydroisoquinolin-1(2H)-one]	< 0.05

same assay, conditions: Homo sapiens, MV4-11, 120 h, read-out: GI50 on cellular proliferation of MV4:11 human cancer cell lines

Structure (SMILES)	GI50 [µM]
COc1ccnc([C@H](C2CC2)N2CCc3c(cc(Cn4ccnc4C)cc3-c3cn(C)nc3C(F)(F)F)C2=O)c1 [Example 251, (S)-2-(Cyclopropyl(4-methoxypyridin-2-yl)methyl)-7-((2-methyl-1H-imidazol-1-yl)methyl)-5-(1-methyl-3-(trifluoromethyl)-1H-pyrazol-4-yl)-3,4-dihydroisoquinolin-1(2H)-one]	< 0.05
